Assay results from PubChem BioAssay (NCI).
Several values for one entry are separate records, joined by “and”; a condition that tells them apart may be missing. Identical values can stand only once.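 Cells were grown in 96-well plates and exposed to each compound for 48 hours at five concentrations; endpoints were interpolated linearly between bracketing concentrations, or set to the highest concentration if not reached. Here, GI50 denotes the concentration required for 50% inhibition of growth. TGI is the concentration that stops growth completely.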

Tests used:
Assay in all cases: inhibition of tumour cell growth, NCI panel, 48 h
ACHN renal = test system: ACHN renal
COLO 205 colon = test system: COLO 205 colon
MOLT-4 leukemia = test system: MOLT-4 leukemia
RPMI-8226 leukemia = test system: RPMI-8226 leukemia
SF-295 CNS = test system: SF-295 CNS
SN12C renal = test system: SN12C renal
UO-31 renal = test system: UO-31 renal
HCC-2998 colon = test system: HCC-2998 colon
SK-OV-3 ovarian = test system: SK-OV-3 ovarian
MALME-3M melanoma = test system: MALME-3M melanoma

SMILES | GI50 (ACHN renal) | TGI (ACHN renal) | GI50 (COLO 205 colon) | TGI (COLO 205 colon) | GI50 (MOLT-4 leukemia) | TGI (MOLT-4 leukemia) | GI50 (RPMI-8226 leukemia) | TGI (RPMI-8226 leukemia) | GI50 (SF-295 CNS) | TGI (SF-295 CNS) | GI50 (SN12C renal) | TGI (SN12C renal) | GI50 (UO-31 renal) | TGI (UO-31 renal) | GI50 (HCC-2998 colon) | TGI (HCC-2998 colon) | GI50 (SK-OV-3 ovarian) | TGI (SK-OV-3 ovarian) | TGI (MALME-3M melanoma) | GI50 (MALME-3M melanoma)
CC(=O)Oc1ccc2c(c1)[C@@]1(C)CCCC(C)(C)[C@@H]1CC2 | 19.1 µM | 33.5 µM | 21.9 µM | 53.6 µM | 30.9 µM | > 100 µM | 12.1 µM | 30.3 µM | 19.1 µM | 56.6 µM | 18.6 µM | 33.1 µM | 31.3 µM | 79.9 µM | – | – | – | – | – | –
C/C=C/C/C=C/[C@H](C)C[C@H](O)[C@@H]1C[C@@H]2O[C@H]2/C=C/[C@@H]2OC(C)(C)O[C@H]2/C=C/C[C@H](C)CC(=O)O1 | 6.05 µM | > 100 µM | 8.02 µM | > 100 µM | 3.94 µM | 37.4 µM | 3.16 µM | 37 µM | 6.06 µM | 60.8 µM | 5.23 µM | > 100 µM | 3.01 µM | 18.7 µM | > 100 µM | > 100 µM | 24.5 µM | > 100 µM | – | –
O=c1c2ccccc2[nH]c2c(O)ccc(O)c12 | – | 33.7 µM | – | – | – | 22.8 µM | – | 70.1 µM | – | 38.5 µM | – | 28.5 µM | – | > 79.9 µM | – | > 100 µM | – | 65.9 µM | 59.7 µM | –
CCOC(=O)C(Cc1c[nH]c2cc(N(CCO)CCO)ccc12)(NC(C)=O)C(=O)OCC | 481 µM | > 1000 µM | 274 µM | > 1000 µM | – | – | 65.3 µM | – | > 1000 µM | > 1000 µM | 379 µM | > 1000 µM | 673 µM | > 1000 µM | > 1000 µM | > 1000 µM | 480 µM | > 1000 µM | > 1000 µM | 258 µM
CN(C)CCC(/C=C/c1ccccc1)=N\Nc1ccc(Cl)c(Cl)c1 | – | 4.49 µM | – | 7.23 µM | – | 6.63 µM | – | 9.53 µM | – | 11.2 µM | – | 13.7 µM | – | 3.41 µM | – | – | – | 15.5 µM | 32.8 µM | –
N#CC1=C(N)NC(=S)NC1c1ccc(-c2ccc(-c3nc4ccccc4o3)cc2)s1 (stereo not given) | 6.54 µM | 12.9 µM | 11.3 µM | 33.4 µM | – | – | 16 µM | > 50 µM | 13.3 µM | 38.8 µM | 10.6 µM | 28.4 µM | 7.89 µM | 17 µM | – | – | 11 µM | 31 µM | – | –
COC(=O)c1cccc2c3ccccc3c3ccccc3c12 | – | > 100 µM | – | 31.7 µM | – | 61.7 µM | – | – | – | 65.9 µM | – | > 100 µM | – | > 100 µM | – | > 100 µM | – | 75.7 µM | > 100 µM | –
[N-]=[N+]=NCCCn1c2c(c3ccc([N+](=O)[O-])cc3c1=O)C(=O)c1cc3c(cc1-2)OCO3 | < 0.0161 µM | 0.459 µM | 0.585 µM | > 100 µM | < 0.0374 µM | – | – | – | < 0.012 µM | < 0.0428 µM | < 0.0106 µM | 0.95 µM | < 0.0335 µM | 2.28 µM | – | – | 0.7 µM | > 100 µM | – | –
CC1=C(C(=O)NCc2ccccc2)C(c2ccc(Cl)c(Cl)c2)C(C(=O)NCc2ccccc2)=C(C)N1 | – | > 100 µM | – | – | – | > 100 µM | – | > 100 µM | – | > 100 µM | – | > 100 µM | – | > 100 µM | – | > 100 µM | – | – | > 100 µM | –
Nc1nonc1-c1nc2ccccc2n1Cc1ccc(F)cc1 | 16 µM | > 100 µM | 5.02 µM | > 100 µM | 5.5 µM | > 100 µM | – | – | 13.1 µM | > 100 µM | – | – | 5.72 µM | > 100 µM | – | – | 16.8 µM | > 100 µM | > 100 µM | 5.09 µM
COc1ccc(/C(C)=N/NC(=O)CSc2nc3ccccc3c(=O)n2CCc2ccc(S(N)(=O)=O)cc2)cc1 | 1.73 µM | 3.27 µM | – | – | 4.2 µM | 84.2 µM | 2.02 µM | 10.6 µM | 1.8 µM | 3.86 µM | 1.89 µM | 3.75 µM | 1.56 µM | 3.28 µM | 9.26 µM | 28.6 µM | – | – | 3.44 µM | 1.72 µM
Nc1ccc(-c2cc(C(=O)Nc3nccs3)[nH]c(=S)n2)cc1 | – | > 100 µM | – | > 100 µM | – | > 100 µM | – | > 100 µM | – | – | – | > 100 µM | – | > 100 µM | – | – | – | > 100 µM | > 100 µM | –
Nc1ncnc2c1ncn2C1OC(COS(N)(=O)=O)C(O)C1O (stereo not given) | – | – | 0.00239 µM and 0.0219 µM | 0.00508 µM and 0.0432 µM | 0.0219 µM | 0.109 µM | 0.00287 µM and 0.0283 µM | 0.265 µM and 0.0661 µM | – | – | < 0.001 µM | – | – | – | – | – | – | 0.00784 µM and 0.0758 µM | – | –
CCN(CC)c1c(-c2ccccc2)n[nH]c1C(=O)OC | 28.8 µM | 74.3 µM | 17.7 µM | 64 µM | 18.6 µM | 58.2 µM | 14.6 µM | 38.4 µM | – | – | 24.4 µM | 40.3 µM | 46.5 µM | > 100 µM | – | – | 17.4 µM | 50.5 µM | 41.5 µM | 15.9 µM
CC(C)(C)OC(=O)NCCCCn1c2c(c3ccccc3c1=O)C(=O)c1ccccc1-2 | 15.7 µM | 50.2 µM | 44 µM | > 100 µM | 4.32 µM | > 100 µM | 4.42 µM | > 100 µM | 16.5 µM | 56.1 µM | 23.1 µM | 69.3 µM | 8.29 µM | > 100 µM | – | – | 50.2 µM | > 100 µM | 80.6 µM | 27.1 µM
O=C1CC(c2c(-c3ccccc3)[nH]c3ccccc23)C(=O)N1c1ccccc1 (stereo not given) | – | > 100 µM | – | – | – | > 100 µM | – | > 100 µM | – | > 100 µM | – | – | – | > 100 µM | – | > 100 µM | – | > 100 µM | > 100 µM | –
NCCCOc1cc2ccccc2cc1C(=O)Nc1ccc(Cl)cc1OC(=O)c1cc2ccccc2cc1OCCCN | 0.373 µM | 0.972 µM | 1.27 µM | 2.63 µM | 0.468 µM | 3.66 µM | – | – | 0.516 µM | 1.44 µM | 0.742 µM | 2.23 µM | 0.179 µM | 0.433 µM | 1.43 µM | 2.82 µM | 1.57 µM | 3.19 µM | – | –
